Data on 15 molecules can be found in patent US20230066011A1, “PYRROLOPYRIMIDINE DERIVATIVE, AND PHARMACEUTICAL COMPOSITION FOR PREVENTING OR TREATING PROTEIN KINASE-RELATED DISEASE COMPRISING SAME AS ACTIVE INGREDIENT” (VORONOI CO., LTD., priority 2019, published 2023).

What all share (assay type): biochemical
One assay addresses T1, human GST-CLK1 (Homo sapiens, UniProt P49759).
T1 construct: purified human GST-CLK1 (129-end, SignalChem) enzyme; purchased SignalChem
Description: GST-CLK1 enzyme inhibition, ADP-Glo kinase assay. The conditions noted are these: ATP 10 μM, GST-CLK1 129-end. The essentials: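 Human GST-CLK1 (129-end, 3 ng) reacted with substrate and 10 μM ATP for 1 h at 25° C in 40 mM Tris-HCl pH 7.4, 20 mM MgCl2, 0.5 mg/mL BSA, 50 μM DTT. ADP-Glo luminescence was normalised to solvent control; IC50 (nM) from 3 data sets.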

In another assay the target is LRRK2 (Homo sapiens, UniProt Q5S007). As to the kind of experiment: LRRK2 enzyme inhibition, ADP-Glo kinase assay. More on the design: purchased Invitrogen PR8604B. The conditions noted are these: ATP 10 μM. An outline of the steps: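 Purified human LRRK2 (25 ng) with 10 μM ATP and 0.2 μg substrate in 40 mM Tris-HCl pH 7.4, 20 mM MgCl2, 0.5 mg/mL BSA, 50 μM DTT, 2 h at 25° C. ADP-Glo luminescence; 12-point compound series from 50 μM final; IC50 relative to solvent control.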
Sequence of LRRK2 (Q5S007 970-2527 limits assumed): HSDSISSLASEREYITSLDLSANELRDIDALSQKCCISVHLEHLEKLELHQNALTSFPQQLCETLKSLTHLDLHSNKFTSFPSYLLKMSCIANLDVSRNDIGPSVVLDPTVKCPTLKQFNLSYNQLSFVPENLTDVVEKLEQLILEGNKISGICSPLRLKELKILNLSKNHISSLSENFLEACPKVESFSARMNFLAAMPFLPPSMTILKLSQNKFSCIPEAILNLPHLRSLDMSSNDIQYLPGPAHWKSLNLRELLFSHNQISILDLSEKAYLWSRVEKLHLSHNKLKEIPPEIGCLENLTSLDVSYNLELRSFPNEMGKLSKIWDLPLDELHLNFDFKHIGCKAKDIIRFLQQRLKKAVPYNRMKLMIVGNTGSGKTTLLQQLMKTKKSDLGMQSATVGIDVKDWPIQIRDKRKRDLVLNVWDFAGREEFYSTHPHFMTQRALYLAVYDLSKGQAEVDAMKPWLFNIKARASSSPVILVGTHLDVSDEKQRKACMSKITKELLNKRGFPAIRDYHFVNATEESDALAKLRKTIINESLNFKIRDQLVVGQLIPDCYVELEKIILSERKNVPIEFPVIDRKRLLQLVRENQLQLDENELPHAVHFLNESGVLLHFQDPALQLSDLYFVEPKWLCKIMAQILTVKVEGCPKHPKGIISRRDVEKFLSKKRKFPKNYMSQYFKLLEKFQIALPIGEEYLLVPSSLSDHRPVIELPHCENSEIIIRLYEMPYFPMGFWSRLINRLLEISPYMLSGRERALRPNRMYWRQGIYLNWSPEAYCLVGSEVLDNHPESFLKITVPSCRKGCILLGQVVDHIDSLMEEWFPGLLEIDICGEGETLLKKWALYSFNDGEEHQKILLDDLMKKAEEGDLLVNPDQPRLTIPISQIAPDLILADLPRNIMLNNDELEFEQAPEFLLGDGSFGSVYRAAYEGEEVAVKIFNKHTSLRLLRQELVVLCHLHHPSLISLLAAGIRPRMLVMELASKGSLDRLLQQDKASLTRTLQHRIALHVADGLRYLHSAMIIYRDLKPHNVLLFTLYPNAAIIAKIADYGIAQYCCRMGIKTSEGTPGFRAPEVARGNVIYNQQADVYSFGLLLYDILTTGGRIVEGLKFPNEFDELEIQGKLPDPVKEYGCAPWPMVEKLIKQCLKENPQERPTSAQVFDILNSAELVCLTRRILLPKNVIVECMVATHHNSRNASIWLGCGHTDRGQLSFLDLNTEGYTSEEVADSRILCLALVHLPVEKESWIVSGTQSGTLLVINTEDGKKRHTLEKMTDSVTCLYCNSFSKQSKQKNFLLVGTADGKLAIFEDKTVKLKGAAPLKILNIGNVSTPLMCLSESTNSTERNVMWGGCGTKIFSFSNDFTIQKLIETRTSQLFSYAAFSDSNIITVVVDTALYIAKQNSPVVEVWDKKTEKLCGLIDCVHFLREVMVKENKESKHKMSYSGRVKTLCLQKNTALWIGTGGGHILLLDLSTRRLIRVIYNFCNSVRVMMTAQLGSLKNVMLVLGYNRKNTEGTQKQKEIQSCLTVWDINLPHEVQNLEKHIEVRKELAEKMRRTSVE
(ADP-Glo first removes unused ATP, then detects ADP through luciferase.)

A further assay addresses LRRK2 (G2019S) (Homo sapiens, UniProt Q5S007, G2019S). Description: LRRK2 G2019S enzyme inhibition, ADP-Glo kinase assay. Set-up: purchased SignalChem L10-12GG. The conditions noted are these: ATP 25 μM. An outline of the steps: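 Purified human LRRK2 G2019S (16 ng) with 25 μM ATP and 0.2 μg substrate, 2 h at 25° C. in Tris-HCl pH 7.4, MgCl2, BSA, DTT buffer; compounds at 12 final concentrations, 50 μM down to 0.000001024 μM. ADP-Glo luminescence versus solvent control gave IC50.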

Another assay deals with T2, human GST-DYRK1A (Homo sapiens, UniProt Q13627).
T2 construct: purified human GST-DYRK1A (full length, Thermo Scientifics) enzyme; purchased Thermo Scientifics
Description: GST-DYRK1A enzyme inhibition, ADP-Glo kinase assay. The conditions noted are these: ATP 10 μM, GST-DYRK1A full length, read-out: DYRK1 IC50. An outline of the steps: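 Full-length human GST-DYRK1A (10 ng) with 10 μM ATP and specific substrate in 40 mM Tris-HCl pH 7.4, 20 mM MgCl2, 0.5 mg/mL BSA, 50 μM DTT, 1 h at 25 °C. ADP formation read by ADP-Glo luminescence relative to solvent control; IC50 from three data sets.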

Sequence of LRRK2 (G2019S) (Q5S007 970-2527 G2019S limits assumed): as the sequence (Q5S007 970-2527 limits assumed) above, with G1050S counted along it
T1 sequence (P49759 129-484 limits assumed): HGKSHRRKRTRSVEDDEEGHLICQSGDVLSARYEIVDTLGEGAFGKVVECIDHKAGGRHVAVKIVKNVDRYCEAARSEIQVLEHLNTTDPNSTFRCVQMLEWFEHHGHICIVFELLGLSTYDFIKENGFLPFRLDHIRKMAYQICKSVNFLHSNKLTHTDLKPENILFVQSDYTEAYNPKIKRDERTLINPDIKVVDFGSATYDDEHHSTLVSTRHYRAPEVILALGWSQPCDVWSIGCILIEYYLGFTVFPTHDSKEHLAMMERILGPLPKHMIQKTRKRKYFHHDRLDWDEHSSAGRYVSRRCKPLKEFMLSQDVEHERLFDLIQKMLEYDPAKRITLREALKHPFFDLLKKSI

For the molecule `COCCNc1nc(Nc2ccc(S(C)(=O)=O)cc2OC)nc2[nH]cc(C(F)(F)F)c12` [Example 171, N^2-(2-methoxy-4-(methylsulfonyl)phenyl)-N^4-(2-methoxyethyl)-5-(trifluoromethyl)-7H-pyrrolo[2,3-d]pyrimidine-2,4-diamine], the IC50 at human GST-CLK1 was 301 to 1000 nM; against LRRK2 it was less than 100 nM; on LRRK2 (G2019S), less than 100 nM; at human GST-DYRK1A it was 301 to 1000 nM.

For `CCNc1nc(Nc2ccc(S(C)(=O)=O)cc2OC)nc2[nH]cc(C#N)c12` [Example 98, 4-(ethylamino)-2-((2-methoxy-4-(methylsulfonyl)phenyl)amino)-7H-pyrrolo[2,3-d]pyrimidine-5-carbonitrile], the IC50 is 301 to 1000 nM on human GST-CLK1, less than 100 nM against LRRK2, less than 100 nM at LRRK2 (G2019S) and 301 to 1000 nM at human GST-DYRK1A.

For the molecule `N#Cc1c[nH]c2nc(Nc3ccc(C(=O)N4CCC(N5CCOCC5)CC4)c4c3OCCO4)nc(NC3CCCCC3)c12` [Example 251, 4-(cyclohexylamino)-2-((8-(4-morpholinopiperidine-1-carbonyl)-2,3-dihydrobenzo[b][1,4]dioxin-5-yl)amino)-7H-pyrrolo[2,3-d]pyrimidine-5-carbonitrile], the IC50 is 301 to 1000 nM against human GST-CLK1, less than 100 nM on LRRK2, less than 100 nM at LRRK2 (G2019S) and 301 to 1000 nM at human GST-DYRK1A.

Turning to `COCCNc1nc(Nc2ccc(C(=O)N3CCOCC3)c3c2OCCO3)nc2[nH]cc(C(F)(F)F)c12` [Example 168, (8-((4-((2-methoxyethyl)amino)-5-(trifluoromethyl)-7H-pyrrolo[2,3-d]pyrimidin-2-yl)amino)-2,3-dihydrobenzo[b][1,4]dioxin-5-yl)(morpholino)methanone], the IC50 against human GST-CLK1, against LRRK2, against LRRK2 (G2019S) and on human GST-DYRK1A was less than 100 nM each time.

Take `CCCCNc1nc(Nc2ccc(C(=O)N3CCOCC3)c3c2OCCO3)nc2[nH]cc(C#N)c12` [Example 134, 4-(butylamino)-2-((8-(morpholine-4-carbonyl)-2,3-dihydrobenzo[b][1,4]dioxin-5-yl)amino)-7H-pyrrolo[2,3-d]pyrimidine-5-carbonitrile]: the IC50 at human GST-CLK1 is 301 to 1000 nM; against LRRK2, less than 100 nM; against LRRK2 (G2019S), less than 100 nM; at human GST-DYRK1A, 301 to 1000 nM.

On to `O=C(c1ccc(Nc2nc(NC3CCC3)c3c(C(F)(F)F)c[nH]c3n2)c2c1OCCO2)N1CCC(N2CCOCC2)CC1` [Example 378, (8-((4-(cyclobutyl-amino)-5-(trifluoromethyl)-7H-pyrrolo[2,3-d]pyrimidin-2-yl)amino)-2,3-dihydrobenzo[b] [1,4]dioxin-5-yl) (4-morpholino-piperidin-1-yl)methanone], for which the IC50 at human GST-CLK1 was less than 100 nM; at LRRK2, less than 100 nM; against LRRK2 (G2019S), less than 100 nM; on human GST-DYRK1A, 101 to 300 nM.

In the case of `COCCNc1nc(Nc2ccc(S(C)(=O)=O)cc2OC)nc2[nH]cc(C#N)c12` [Example 103, 2-((2-methoxy-4-(methylsulfonyl)phenyl)amino)-4-((2-methoxyethyl)amino)-7H-pyrrolo[2,3-d]pyrimidine-5-carbonitrile], the IC50 was 301 to 1000 nM against human GST-CLK1, less than 100 nM against LRRK2, less than 100 nM against LRRK2 (G2019S) and 301 to 1000 nM on human GST-DYRK1A.

Regarding `CNc1nc(Nc2ccc(C(=O)N3CCC(N4CCOCC4)CC3)c3c2OCCO3)nc2[nH]cc(C#N)c12` [Example 136, 4-(methylamino)-2-((8-(4-morpholinopiperidine-1-carbonyl)-2,3-dihydrobenzo[b][1,4]dioxin-5-yl)amino)-7H-pyrrolo[2,3-d]pyrimidine-5-carbonitrile], the IC50 at human GST-CLK1 was less than 100 nM; against LRRK2, less than 100 nM; on LRRK2 (G2019S) it was less than 100 nM; on human GST-DYRK1A, 101 to 300 nM.

In the case of `CCNc1nc(Nc2ccc(C(=O)N3CCOCC3)c3c2OCCO3)nc2[nH]cc(C#N)c12` [Example 119, 4-(ethylamino)-2-((8-(morpholine-4-carbonyl)-2,3-dihydrobenzo[b][1,4]dioxin-5-yl)amino)-7H-pyrrolo[2,3-d]pyrimidine-5-carbonitrile], the 50% inhibitory concentration (IC50) was less than 100 nM on human GST-CLK1, less than 100 nM on LRRK2, less than 100 nM at LRRK2 (G2019S) and 301 to 1000 nM at human GST-DYRK1A.

As to `CNc1nc(Nc2ccc(C(=O)N3CCOCC3)c3c2OCCO3)nc2[nH]cc(C(F)(F)F)c12` [Example 155, (8-((4-(methyalmino)-5-(trifluoromethyl)-7H-pyrrolo[2,3-d]pyrimidin-2-yl)amino)-2,3-dihydrobenzo[b][1,4]dioxin-5-yl)(morpholino)methanone 2,2,2-trifluoroacetate], the IC50 at human GST-CLK1, against LRRK2, at LRRK2 (G2019S) and on human GST-DYRK1A was less than 100 nM in each case.

As to `COc1cc(S(=O)(=O)N2CCC(N3CCOCC3)CC2)ccc1Nc1nc(NCC(C)C)c2c(C(F)(F)F)c[nH]c2n1` [Example 179, N^4-isobutyl-N^2-(2-methoxy-4-((4-morpholinopiperidin-1-yl)sulfonyl)phenyl)-5-(trifluoromethyl)-7H-pyrrolo[2,3-d]pyrimidine-2,4-diamine], the IC50 at human GST-CLK1 is 301 to 1000 nM; on LRRK2, less than 100 nM; against LRRK2 (G2019S) it was 101 to 300 nM; at human GST-DYRK1A, 301 to 1000 nM.

Regarding `N#Cc1c[nH]c2nc(Nc3ccc(C(=O)N4CCOCC4)c4c3OCCO4)nc(NC3CC3)c12` [Example 124, 4-(cyclopropylamino)-2-((8-(morpholine-4-carbonyl)-2,3-dihydrobenzo[b][1,4]dioxin-5-yl)amino)-7H-pyrrolo[2,3-d]pyrimidine-5-carbonitrile], the IC50 against human GST-CLK1 was 101 to 300 nM; against LRRK2, less than 100 nM; on LRRK2 (G2019S), less than 100 nM; at human GST-DYRK1A it was 101 to 300 nM.

Turning to `N#Cc1c[nH]c2nc(Nc3ccc(C(=O)N4CCC(N5CCOCC5)CC4)c4c3OCCO4)nc(NC3CCC3)c12` [Example 259, 4-(cyclobutylamino)-2-((8-(4-morpholinopiperidine-1-carbonyl)-2,3-dihydrobenzo[b][1,4]dioxin-5-yl)amino)-7H-pyrrolo[2,3-d]pyrimidine-5-carbonitrile], the IC50 on human GST-CLK1 was less than 100 nM; against LRRK2, less than 100 nM; against LRRK2 (G2019S) it was less than 100 nM; on human GST-DYRK1A it was 101 to 300 nM.

As to `CNc1nc(Nc2ccc(C(=O)N3CCOCC3)c3c2OCCO3)nc2[nH]cc(C#N)c12` [Example 118, 4-(methylamino)-2-((8-(morpholine-4-carbonyl)-2,3-dihydrobenzo[b][1,4]dioxin-5-yl)amino)-7H-pyrrolo[2,3-d]pyrimidine-5-carbonitrile], the IC50 against human GST-CLK1 is less than 100 nM; at LRRK2 it was less than 100 nM; against LRRK2 (G2019S) it was less than 100 nM; at human GST-DYRK1A, 301 to 1000 nM.

Consider `COc1cc(S(C)(=O)=O)ccc1Nc1nc(NC(C)C)c2c(C(F)(F)F)c[nH]c2n1` [Example 166, N^4-isopropyl-N^2-(2-methoxy-4-(methylsulfonyl)-phenyl)-5-(trifluoromethyl)-7H-pyrrolo[2,3-d]pyrimidine-2,4-diamine], for which the IC50 is 301 to 1000 nM on human GST-CLK1, less than 100 nM on LRRK2, 101 to 300 nM at LRRK2 (G2019S) and 301 to 1000 nM on human GST-DYRK1A.

Usually IC50 stands for the midpoint of a concentration-inhibition curve.
